Results on 1 compound are retold here after paper PMC12658114, “Pharmacologic inhibition of PCBP2 biomolecular condensates relieves Alzheimer’s disease” (Nature Communications, 2025).

Common to all, as to experiment: biotin probe pull-down on streptavidin beads, Western blot
Assay type in all cases: biochemical
Holding throughout (settings): lysate of transfected SH-SY5Y cells; labelled compound
A general note: A western blot detects proteins with antibodies after separation by electrophoresis.

One test concerns the target T1, flag-tagged INTS1 (Homo sapiens, UniProt Q8N201, R1404K).
T1 construct: full-length cDNA (synthesized) in pcDNA3.1(+), C-terminal 3xFLAG, transiently expressed in SH-SY5Y cells, cell lysate

In test [1] the target is T2, flag-tagged wild type INTS1 (INTS1-WT-flag) (Homo sapiens, UniProt Q8N201).
T2 construct: full-length cDNA (synthesized) in pcDNA3.1(+), C-terminal 3xFLAG, transiently expressed in SH-SY5Y cells, cell lysate

Test [2] deals with T3, (Homo sapiens, UniProt Q8N201, R1404A).
T3 construct: gene INTS1; full-length cDNA (synthesized) in pcDNA3.1(+), C-terminal 3xFLAG, transiently expressed in SH-SY5Y cells, cell lysate

The target of test [3] is T4, (Homo sapiens, UniProt Q8N201, R1404L).
T4 construct: gene INTS1; full-length cDNA (synthesized) in pcDNA3.1(+), C-terminal 3xFLAG, transiently expressed in SH-SY5Y cells, cell lysate
T4 sequence (Q8N201 whole entry R1404L): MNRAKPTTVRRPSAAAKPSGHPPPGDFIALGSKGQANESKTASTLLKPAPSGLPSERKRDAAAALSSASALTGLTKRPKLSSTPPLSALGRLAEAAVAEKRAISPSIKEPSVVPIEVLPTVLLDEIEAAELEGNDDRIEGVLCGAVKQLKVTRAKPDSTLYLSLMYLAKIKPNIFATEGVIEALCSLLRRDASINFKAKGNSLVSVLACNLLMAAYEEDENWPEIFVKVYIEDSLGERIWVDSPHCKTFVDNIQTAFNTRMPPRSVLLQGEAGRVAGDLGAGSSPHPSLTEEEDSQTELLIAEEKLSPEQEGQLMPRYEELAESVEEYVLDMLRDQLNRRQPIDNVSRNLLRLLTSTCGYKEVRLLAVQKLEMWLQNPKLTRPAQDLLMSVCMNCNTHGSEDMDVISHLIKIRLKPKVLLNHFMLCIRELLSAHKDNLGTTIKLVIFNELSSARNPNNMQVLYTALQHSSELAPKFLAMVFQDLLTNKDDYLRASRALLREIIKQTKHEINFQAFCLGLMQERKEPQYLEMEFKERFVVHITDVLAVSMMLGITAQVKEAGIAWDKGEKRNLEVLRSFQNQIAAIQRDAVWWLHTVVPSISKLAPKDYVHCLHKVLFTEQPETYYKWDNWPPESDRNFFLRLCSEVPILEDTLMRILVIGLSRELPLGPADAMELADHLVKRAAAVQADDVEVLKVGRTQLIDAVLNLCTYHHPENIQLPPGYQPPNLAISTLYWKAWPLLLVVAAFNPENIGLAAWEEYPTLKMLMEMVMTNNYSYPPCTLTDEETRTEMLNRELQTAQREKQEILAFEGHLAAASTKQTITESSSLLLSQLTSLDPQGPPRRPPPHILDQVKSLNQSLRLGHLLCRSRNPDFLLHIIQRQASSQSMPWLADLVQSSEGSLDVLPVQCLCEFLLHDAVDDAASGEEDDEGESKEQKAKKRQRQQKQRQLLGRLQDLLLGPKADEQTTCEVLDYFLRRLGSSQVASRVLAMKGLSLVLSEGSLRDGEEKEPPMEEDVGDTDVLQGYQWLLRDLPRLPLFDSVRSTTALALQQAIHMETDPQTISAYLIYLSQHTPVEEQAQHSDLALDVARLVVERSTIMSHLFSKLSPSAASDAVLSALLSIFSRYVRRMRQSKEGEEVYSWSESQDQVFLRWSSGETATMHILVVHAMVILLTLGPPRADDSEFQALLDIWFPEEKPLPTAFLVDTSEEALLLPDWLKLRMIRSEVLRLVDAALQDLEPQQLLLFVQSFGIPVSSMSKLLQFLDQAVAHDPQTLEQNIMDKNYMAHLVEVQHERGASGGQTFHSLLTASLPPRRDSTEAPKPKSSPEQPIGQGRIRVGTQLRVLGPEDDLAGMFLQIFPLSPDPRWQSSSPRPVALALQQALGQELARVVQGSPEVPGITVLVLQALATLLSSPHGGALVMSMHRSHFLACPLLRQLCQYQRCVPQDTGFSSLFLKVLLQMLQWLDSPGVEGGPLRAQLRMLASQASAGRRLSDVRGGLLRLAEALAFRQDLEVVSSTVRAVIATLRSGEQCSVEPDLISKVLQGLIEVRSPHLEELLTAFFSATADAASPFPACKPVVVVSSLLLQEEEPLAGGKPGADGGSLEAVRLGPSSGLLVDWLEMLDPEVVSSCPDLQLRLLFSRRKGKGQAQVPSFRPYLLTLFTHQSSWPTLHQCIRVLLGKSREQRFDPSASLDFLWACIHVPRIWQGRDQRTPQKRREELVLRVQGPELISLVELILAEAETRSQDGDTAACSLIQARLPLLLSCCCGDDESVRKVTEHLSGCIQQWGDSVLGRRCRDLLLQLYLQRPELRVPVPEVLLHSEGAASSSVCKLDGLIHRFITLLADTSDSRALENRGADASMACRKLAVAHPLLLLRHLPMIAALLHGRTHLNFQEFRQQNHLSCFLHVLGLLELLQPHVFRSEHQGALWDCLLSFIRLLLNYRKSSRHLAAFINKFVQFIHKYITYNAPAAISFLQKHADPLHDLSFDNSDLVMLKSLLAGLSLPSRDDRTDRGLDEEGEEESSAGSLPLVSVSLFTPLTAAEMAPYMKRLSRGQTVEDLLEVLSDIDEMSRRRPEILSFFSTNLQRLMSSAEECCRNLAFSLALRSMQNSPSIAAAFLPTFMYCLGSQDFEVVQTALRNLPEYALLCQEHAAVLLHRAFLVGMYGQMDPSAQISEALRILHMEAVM

T1 sequence (Q8N201 whole entry R1404K): as the sequence (Q8N201 whole entry R1404L) above, with L1404K counted along it
T3 sequence (Q8N201 whole entry R1404A): as the sequence (Q8N201 whole entry R1404L) above, with L1404A counted along it
T2 sequence (Q8N201 whole entry): as the sequence (Q8N201 whole entry R1404L) above, with L1404R counted along it

`N#Cc1c(NC(=O)CN2CCN(C(=O)CCCC[C@H]3SC[C@@H]4NC(=O)N[C@@H]43)CC2)sc2c1CCCC2` [CN-0928-biotin, N-(3-cyano-4,5,6,7-tetrahydrobenzo[b]thiophen-2-yl)-2-(4-(5-((3aS,4R,6aR)-2-oxohexahydro-1H-thieno[3,4-d]imidazol-4-yl)pentanoyl)piperazin-1-yl)acetamide]: the pulldown result at flag-tagged INTS1 was “(R1404A, R1404L, and R1404K) prevented the binding of CN-0928-biotin to flag-labeled INTS1”; in test [2] it was “(R1404A, R1404L, and R1404K) prevented the binding of CN-0928-biotin to flag-labeled INTS1”; in test [3], “(R1404A, R1404L, and R1404K) prevented the binding of CN-0928-biotin to flag-labeled INTS1”. Besides, the “biotin probe pull-down on streptavidin beads, Western blot” value in test [1] was “CN-0928-biotin pulldown of flag-tagged wild type (INTS1-WT-flag)”.
